Measurements published in ChEMBL document CHEMBL3885861, “Open TG-GATES”.

Species: Rattus norvegicus
Experiment: Open TG-GATES - Regimen: Single
Type: toxicity, organism-based, Sprague-Dawley
Design: regimen Single, gender Male, age 6 weeks
Conditions: in vivo, po, 100 mg/kg, route gavage, dose level High; for APTT / Bas / Eos / Fbg / Hb / Ht / Lym / MCH / MCHC / MCV / Mono / Neu / PT / Plat / RBC / Ret / WBC: tissue Blood; for KIDNEY_L / KIDNEY_R / KIDNEY_TOTAL: tissue Kidney; for LIVER: tissue Liver; for A/G / ALP / ALT / AST / BUN / CRE / Ca / Cl / DBIL / GLC / IP / K / LDH / Na / PL / RALB / TBIL / TC / TG / TP / gamma-GTP: tissue Plasma

Compound CCN(CC)N=O [N-NITROSODIETHYLAMINE] has a TERMINAL_BW (3 h) of 221.2 g, an APTT (3 h) of 19.4 s and a Bas (3 h) of 0%. For the same compound, the Eos (3 h) was 1%, the Fbg (3 h) was 208.2 mg/dL and the Hb (3 h) was 13.2 g/dL. For the same compound, the Ht (3 h) was 38.5%, the Lym (3 h) was 77.2% and the MCH (3 h) was 21.5 pg. It also gave an MCHC (3 h) of 34.2%, an MCV (3 h) of 62.7 fL and a Mono (3 h) of 1.4%. It also gave a Neu (3 h) of 19.2%, a PT (3 h) of 12 s and a Plat (3 h) of 113.8 x10_4/uL. It also gave an RBC (3 h) of 613.8 x10_4/ul, a Ret (3 h) of 7.2% and a WBC (3 h) of 60.2 x10_2/uL. The KIDNEY_L (3 h) was 1 g, the KIDNEY_R (3 h) was 1 g and the KIDNEY_TOTAL (3 h) was 2 g. For the same compound, the LIVER (3 h) was 9 g, the A/G (3 h) was 1.7 and the ALP (3 h) was 781 IU/L. It also gave an ALT (3 h) of 39.6 IU/L, an AST (3 h) of 73.6 IU/L and a BUN (3 h) of 9.8 mg/dL. It also gave a CRE (3 h) of 0.4 mg/dL, a Ca (3 h) of 10.2 mg/dL and a Cl (3 h) of 102.2 meq/L. The DBIL (3 h) was 0.056 mg/dL, the GLC (3 h) was 191 mg/dL and the IP (3 h) was 8.5 mg/dL. The K (3 h) was 3.5 meq/L, the LDH (3 h) was 162 IU/L and the Na (3 h) was 140.8 meq/L. For the same compound, the PL (3 h) was 124.8 mg/dL, the RALB (3 h) was 3.4 g/dL and the TBIL (3 h) was 0.1 mg/dL. The TC (3 h) was 85 mg/dL, the TG (3 h) was 24.2 mg/dL and the TP (3 h) was 5.5 g/dL. For the same compound, the gamma-GTP (3 h) was 1.2 IU/L, the TERMINAL_BW (6 h) was 218 g and the APTT (6 h) was 18.8 s. For the same compound, the Bas (6 h) was 0.4%, the Eos (6 h) was 0.8% and the Fbg (6 h) was 214.6 mg/dL. It also gave a Hb (6 h) of 13.2 g/dL, a Ht (6 h) of 38.2% and a Lym (6 h) of 80.2%. For the same compound, the MCH (6 h) was 21.2 pg, the MCHC (6 h) was 34.6% and the MCV (6 h) was 61.4 fL. For the same compound, the Mono (6 h) was 2%, the Neu (6 h) was 16% and the PT (6 h) was 12.7 s. The Plat (6 h) was 142.5 x10_4/uL, the RBC (6 h) was 623 x10_4/ul and the Ret (6 h) was 6.6%. For the same compound, the WBC (6 h) was 83.6 x10_2/uL, the KIDNEY_L (6 h) was 1 g and the KIDNEY_R (6 h) was 1 g. For the same compound, the KIDNEY_TOTAL (6 h) was 2 g, the LIVER (6 h) was 9.8 g and the A/G (6 h) was 1.6. For the same compound, the ALP (6 h) was 784.2 IU/L, the ALT (6 h) was 38.2 IU/L and the AST (6 h) was 73.4 IU/L. It also gave a BUN (6 h) of 12 mg/dL, a CRE (6 h) of 0.4 mg/dL and a Ca (6 h) of 10.2 mg/dL. It also gave a Cl (6 h) of 103.4 meq/L, a DBIL (6 h) of 0.068 mg/dL and a GLC (6 h) of 192.8 mg/dL. It also gave an IP (6 h) of 8.3 mg/dL, a K (6 h) of 3.5 meq/L and an LDH (6 h) of 207.8 IU/L. The Na (6 h) was 140.4 meq/L, the PL (6 h) was 103.6 mg/dL and the RALB (6 h) was 3.4 g/dL. The TBIL (6 h) was 0.1 mg/dL, the TC (6 h) was 68.8 mg/dL and the TG (6 h) was 24 mg/dL. For the same compound, the TP (6 h) was 5.5 g/dL, the gamma-GTP (6 h) was 1.4 IU/L and the TERMINAL_BW (9 h) was 225.6 g. For the same compound, the APTT (9 h) was 19.6 s, the Bas (9 h) was 0.6% and the Eos (9 h) was 1%. For the same compound, the Fbg (9 h) was 226.6 mg/dL, the Hb (9 h) was 13.7 g/dL and the Ht (9 h) was 39.4%. For the same compound, the Lym (9 h) was 71.6%, the MCH (9 h) was 21.4 pg and the MCHC (9 h) was 34.9%. For the same compound, the MCV (9 h) was 61.4 fL, the Mono (9 h) was 5% and the Neu (9 h) was 20.4%. The PT (9 h) was 13.8 s, the Plat (9 h) was 122.7 x10_4/uL and the RBC (9 h) was 642 x10_4/ul. For the same compound, the Ret (9 h) was 6.9%, the WBC (9 h) was 78.5 x10_2/uL and the KIDNEY_L (9 h) was 1 g. It also gave a KIDNEY_R (9 h) of 1 g, a KIDNEY_TOTAL (9 h) of 2 g and an LIVER (9 h) of 9.7 g. For the same compound, the A/G (9 h) was 1.6, the ALP (9 h) was 795 IU/L and the ALT (9 h) was 35.6 IU/L. For the same compound, the AST (9 h) was 87.8 IU/L, the BUN (9 h) was 14.2 mg/dL and the CRE (9 h) was 0.4 mg/dL. For the same compound, the Ca (9 h) was 10.3 mg/dL, the Cl (9 h) was 103.2 meq/L and the DBIL (9 h) was 0.064 mg/dL. The GLC (9 h) was 194.4 mg/dL, the IP (9 h) was 8.2 mg/dL and the K (9 h) was 3.7 meq/L. For the same compound, the LDH (9 h) was 267.2 IU/L, the Na (9 h) was 141.6 meq/L and the PL (9 h) was 110.4 mg/dL. It also gave an RALB (9 h) of 3.4 g/dL, a TBIL (9 h) of 0.1 mg/dL and a TC (9 h) of 73.4 mg/dL. For the same compound, the TG (9 h) was 28.2 mg/dL, the TP (9 h) was 5.5 g/dL and the gamma-GTP (9 h) was 1.6 IU/L. The TERMINAL_BW (24 h) was 216.1 g, the APTT (24 h) was 19 s and the Bas (24 h) was 0.8%. The Eos (24 h) was 1.2%, the Fbg (24 h) was 225.6 mg/dL and the Hb (24 h) was 15.1 g/dL. It also gave a Ht (24 h) of 44.4%, a Lym (24 h) of 72.4% and an MCH (24 h) of 21 pg. For the same compound, the MCHC (24 h) was 34%, the MCV (24 h) was 61.7 fL and the Mono (24 h) was 6%. The Neu (24 h) was 17.8%, the PT (24 h) was 17 s and the Plat (24 h) was 130.3 x10_4/uL. For the same compound, the RBC (24 h) was 720.2 x10_4/ul, the Ret (24 h) was 6.5% and the WBC (24 h) was 83.1 x10_2/uL. For the same compound, the KIDNEY_L (24 h) was 1 g, the KIDNEY_R (24 h) was 1 g and the KIDNEY_TOTAL (24 h) was 2 g. The LIVER (24 h) was 8.2 g, the A/G (24 h) was 1.7 and the ALP (24 h) was 955.6 IU/L. The ALT (24 h) was 56.2 IU/L, the AST (24 h) was 160 IU/L and the BUN (24 h) was 13.4 mg/dL. It also gave a CRE (24 h) of 0.4 mg/dL, a Ca (24 h) of 10.4 mg/dL and a Cl (24 h) of 104.2 meq/L. It also gave a DBIL (24 h) of 0.1 mg/dL, a GLC (24 h) of 179.6 mg/dL and an IP (24 h) of 8.4 mg/dL. For the same compound, the K (24 h) was 4.1 meq/L, the LDH (24 h) was 348.8 IU/L and the Na (24 h) was 140.6 meq/L. For the same compound, the PL (24 h) was 112.2 mg/dL, the RALB (24 h) was 3.3 g/dL and the TBIL (24 h) was 0.2 mg/dL. The TC (24 h) was 65.2 mg/dL, the TG (24 h) was 25.6 mg/dL and the TP (24 h) was 5.3 g/dL. For the same compound, the gamma-GTP (24 h) was 1.8 IU/L.
